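Where inhibition never reached the appropriate level, the endpoint shown equals the highest concentration tested. Otherwise, values were interpolated linearly from a five-concentration, 48-hour dose response in 96-well plates. TGI marks complete inhibition of growth.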
Columns and labels:
Test in all cases: inhibition of tumour cell growth, NCI panel, 48 h
SF-295 CNS = tested on: SF-295 CNS
COLO 205 colon = tested on: COLO 205 colon
SN12C renal = tested on: SN12C renal
U251 CNS = tested on: U251 CNS
RXF 393 renal = tested on: RXF 393 renal
SNB-19 CNS = tested on: SNB-19 CNS
PC-3 prostate = tested on: PC-3 prostate
OVCAR-4 ovarian = tested on: OVCAR-4 ovarian
UO-31 renal = tested on: UO-31 renal
HT29 colon = tested on: HT29 colon
SW-620 colon = tested on: SW-620 colon
MALME-3M melanoma = tested on: MALME-3M melanoma
OVCAR-5 ovarian = tested on: OVCAR-5 ovarian
HCT-15 colon = tested on: HCT-15 colon
MCF7 breast = tested on: MCF7 breast
NCI-H23 lung = tested on: NCI-H23 lung
A549 NSCLC = tested on: A549 NSCLC
TK-10 renal = tested on: TK-10 renal
HS 578T breast = tested on: HS 578T breast
SR leukemia = tested on: SR leukemia
ACHN renal = tested on: ACHN renal
MDA-MB-435 = tested on: MDA-MB-435
SK-MEL-2 melanoma = tested on: SK-MEL-2 melanoma
NCI-H460 lung = tested on: NCI-H460 lung
MDA-N = tested on: MDA-N
BT-549 breast = tested on: BT-549 breast
MOLT-4 leukemia = tested on: MOLT-4 leukemia
NCI-H522 lung = tested on: NCI-H522 lung
CAKI-1 renal = tested on: CAKI-1 renal
SK-MEL-28 melanoma = tested on: SK-MEL-28 melanoma
IGROV1 ovarian = tested on: IGROV1 ovarian
SNB-75 CNS = tested on: SNB-75 CNS
HOP-92 NSCLC = tested on: HOP-92 NSCLC
HCT-116 colon = tested on: HCT-116 colon
UACC-62 melanoma = tested on: UACC-62 melanoma
786-0 renal = tested on: 786-0 renal
A498 renal = tested on: A498 renal
SF-539 CNS = tested on: SF-539 CNS
UACC-257 melanoma = tested on: UACC-257 melanoma
SK-OV-3 ovarian = tested on: SK-OV-3 ovarian
M14 melanoma = tested on: M14 melanoma
HL-60(TB) leukemia = tested on: HL-60(TB) leukemia
CCRF-CEM leukemia = tested on: CCRF-CEM leukemia
DU-145 prostate = tested on: DU-145 prostate
KM12 colon = tested on: KM12 colon
T-47D breast = tested on: T-47D breast
SF-268 CNS = tested on: SF-268 CNS
NCI-H226 lung = tested on: NCI-H226 lung
SK-MEL-5 melanoma = tested on: SK-MEL-5 melanoma
RPMI-8226 leukemia = tested on: RPMI-8226 leukemia
K-562 leukemia = tested on: K-562 leukemia
MDA-MB-231 breast = tested on: MDA-MB-231 breast
EKVX NSCLC = tested on: EKVX NSCLC

**Q.** For `N#Cc1cnc(-n2[nH]c3c(c2=O)CCCC3)[nH]c1=O`, which TGI (SF-295 CNS) is on record?
**A.** The TGI was > 100 µM.

**Q.** And the TGI (COLO 205 colon)?
**A.** The TGI was > 100 µM.

**Q.** What about the TGI (SN12C renal) of the same compound?
**A.** Its TGI is > 100 µM.

**Q.** And the TGI (U251 CNS)?
**A.** The TGI was > 100 µM.

**Q.** What about the TGI (RXF 393 renal) of the same compound?
**A.** Its TGI is > 100 µM.

**Q.** And the TGI (SNB-19 CNS)?
**A.** The TGI was > 100 µM.

**Q.** What about the TGI (PC-3 prostate) of the same compound?
**A.** Its TGI is > 100 µM.

**Q.** What about the TGI (OVCAR-4 ovarian) of the same compound?
**A.** Its TGI is > 100 µM.

**Q.** And the TGI (UO-31 renal)?
**A.** Its TGI is > 100 µM.

**Q.** And the TGI (HT29 colon)?
**A.** Its TGI is > 100 µM.

**Q.** What about the TGI (SW-620 colon) of the same compound?
**A.** Its TGI is > 100 µM.

**Q.** And the TGI (MALME-3M melanoma)?
**A.** The TGI was > 100 µM.

**Q.** What about the TGI (OVCAR-5 ovarian) of the same compound?
**A.** Its TGI is > 100 µM.

**Q.** What about the TGI (HCT-15 colon) of the same compound?
**A.** Its TGI is > 100 µM.

**Q.** What about the TGI (MCF7 breast) of the same compound?
**A.** The TGI was > 100 µM.

**Q.** What about the TGI (NCI-H23 lung) of the same compound?
**A.** The TGI was > 100 µM.

**Q.** And the TGI (A549 NSCLC)?
**A.** The TGI was > 100 µM.

**Q.** What about the TGI (TK-10 renal) of the same compound?
**A.** Its TGI is > 100 µM.

**Q.** What about the TGI (HS 578T breast) of the same compound?
**A.** The TGI was > 100 µM.

**Q.** What about the TGI (SR leukemia) of the same compound?
**A.** The TGI was > 100 µM.

**Q.** What about the TGI (ACHN renal) of the same compound?
**A.** Its TGI is > 100 µM.

**Q.** What about the TGI (MDA-MB-435) of the same compound?
**A.** The TGI was > 100 µM.

**Q.** And the TGI (SK-MEL-2 melanoma)?
**A.** The TGI was > 100 µM.

**Q.** And the TGI (NCI-H460 lung)?
**A.** The TGI was > 100 µM.

**Q.** What about the TGI (MDA-N) of the same compound?
**A.** The TGI was > 100 µM.

**Q.** What about the TGI (BT-549 breast) of the same compound?
**A.** The TGI was > 100 µM.

**Q.** What about the TGI (MOLT-4 leukemia) of the same compound?
**A.** The TGI was > 100 µM.

**Q.** What about the TGI (NCI-H522 lung) of the same compound?
**A.** Its TGI is > 100 µM.

**Q.** What about the TGI (CAKI-1 renal) of the same compound?
**A.** The TGI was > 100 µM.

**Q.** What about the TGI (SK-MEL-28 melanoma) of the same compound?
**A.** The TGI was > 100 µM.

**Q.** And the TGI (IGROV1 ovarian)?
**A.** The TGI was > 100 µM.

**Q.** What about the TGI (SNB-75 CNS) of the same compound?
**A.** Its TGI is 55.9 µM.

**Q.** And the TGI (HOP-92 NSCLC)?
**A.** The TGI was > 100 µM.

**Q.** And the TGI (HCT-116 colon)?
**A.** Its TGI is > 100 µM.

**Q.** What about the TGI (UACC-62 melanoma) of the same compound?
**A.** Its TGI is > 100 µM.

**Q.** And the TGI (786-0 renal)?
**A.** Its TGI is > 100 µM.

**Q.** And the TGI (A498 renal)?
**A.** The TGI was > 100 µM.

**Q.** And the TGI (SF-539 CNS)?
**A.** The TGI was > 100 µM.

**Q.** And the TGI (UACC-257 melanoma)?
**A.** The TGI was > 100 µM.

**Q.** What about the TGI (SK-OV-3 ovarian) of the same compound?
**A.** The TGI was > 100 µM.

**Q.** And the TGI (M14 melanoma)?
**A.** The TGI was > 100 µM.

**Q.** What about the TGI (HL-60(TB) leukemia) of the same compound?
**A.** The TGI was > 100 µM.

**Q.** What about the TGI (CCRF-CEM leukemia) of the same compound?
**A.** The TGI was > 100 µM.

**Q.** And the TGI (DU-145 prostate)?
**A.** Its TGI is > 100 µM.

**Q.** And the TGI (KM12 colon)?
**A.** The TGI was > 100 µM.

**Q.** And the TGI (T-47D breast)?
**A.** The TGI was > 100 µM.

**Q.** What about the TGI (SF-268 CNS) of the same compound?
**A.** Its TGI is > 100 µM.

**Q.** And the TGI (NCI-H226 lung)?
**A.** The TGI was > 100 µM.

**Q.** What about the TGI (SK-MEL-5 melanoma) of the same compound?
**A.** Its TGI is > 100 µM.

**Q.** What about the TGI (RPMI-8226 leukemia) of the same compound?
**A.** The TGI was > 100 µM.

**Q.** And the TGI (K-562 leukemia)?
**A.** Its TGI is > 100 µM.

**Q.** What about the TGI (MDA-MB-231 breast) of the same compound?
**A.** Its TGI is > 100 µM.

**Q.** And the TGI (EKVX NSCLC)?
**A.** Its TGI is > 100 µM.
